The values that follow come from article PMC3166797 (Journal of medicinal chemistry, 2011).

One series addresses CYP2D6 (Homo sapiens, UniProt P10635). Description: CYP450 enzyme inhibition, CYP2D6. Particulars: P450 2D6, CYP2D6 inhibition.
A further series addresses CYP2C9 (Homo sapiens, UniProt P11712). As to the kind of experiment: CYP450 enzyme inhibition, CYP2C9. The note with it: P450 2C9, CYP2C9 inhibition.
For another series, the target named is T1, CYP1A2 (Homo sapiens, UniProt P05177).
T1 sequence (P05177 1-516): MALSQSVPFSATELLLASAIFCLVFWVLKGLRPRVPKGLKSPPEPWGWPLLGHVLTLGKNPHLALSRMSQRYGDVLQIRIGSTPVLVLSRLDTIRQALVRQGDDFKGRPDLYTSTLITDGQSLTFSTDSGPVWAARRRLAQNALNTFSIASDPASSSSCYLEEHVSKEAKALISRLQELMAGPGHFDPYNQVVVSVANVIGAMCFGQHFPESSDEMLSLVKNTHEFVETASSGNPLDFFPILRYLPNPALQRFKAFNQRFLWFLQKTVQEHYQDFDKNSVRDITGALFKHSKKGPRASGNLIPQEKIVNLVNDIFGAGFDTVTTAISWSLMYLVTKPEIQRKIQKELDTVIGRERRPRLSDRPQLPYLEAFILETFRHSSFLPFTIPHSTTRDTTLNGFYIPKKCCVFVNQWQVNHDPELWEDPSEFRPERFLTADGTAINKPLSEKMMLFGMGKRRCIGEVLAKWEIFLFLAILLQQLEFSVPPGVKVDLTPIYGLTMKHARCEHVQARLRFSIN
Description: CYP450 enzyme inhibition, CYP1A2.

The nature of a further series: microsomal stability. Particulars: for Rat Clint: microsomal intrinsic clearance in vitro; for CLint scaled at 1 µM: rat, microsomes.
The target in a further series is CYP3A4 (Homo sapiens, UniProt P08684). Description: CYP450 enzyme inhibition, CYP3A4.
For another series, the target named is rat mGlu4 (Rattus norvegicus, UniProt P31423). As to the kind of experiment: thallium flux in HEK cells expressing rat mGlu4 with GIRK channels. Type of series: cell-based. The note with it: maximal PAM response normalized to control PAM 1 (PHCCC); mean ± SEM.
The conditions of series [1]: dosed systemically in a nontoxic vehicle; cited from earlier work.
The next series has as its target human mGlu4 (Homo sapiens, UniProt Q14833). Description: cell-based.
Series [2] deals with acute rodent models of Parkinson's disease. Particulars: icv injection or systemically in a 50% DMSO vehicle; cited from earlier work.
The next series relates to mGlu1. The note with it: cited from earlier work.

Each structure is given as a SMILES string. Read-outs that look alike come from different tables or passages of the source. Bounds are passed on as bounds.

CYP2C9, sequence (P11712 whole entry): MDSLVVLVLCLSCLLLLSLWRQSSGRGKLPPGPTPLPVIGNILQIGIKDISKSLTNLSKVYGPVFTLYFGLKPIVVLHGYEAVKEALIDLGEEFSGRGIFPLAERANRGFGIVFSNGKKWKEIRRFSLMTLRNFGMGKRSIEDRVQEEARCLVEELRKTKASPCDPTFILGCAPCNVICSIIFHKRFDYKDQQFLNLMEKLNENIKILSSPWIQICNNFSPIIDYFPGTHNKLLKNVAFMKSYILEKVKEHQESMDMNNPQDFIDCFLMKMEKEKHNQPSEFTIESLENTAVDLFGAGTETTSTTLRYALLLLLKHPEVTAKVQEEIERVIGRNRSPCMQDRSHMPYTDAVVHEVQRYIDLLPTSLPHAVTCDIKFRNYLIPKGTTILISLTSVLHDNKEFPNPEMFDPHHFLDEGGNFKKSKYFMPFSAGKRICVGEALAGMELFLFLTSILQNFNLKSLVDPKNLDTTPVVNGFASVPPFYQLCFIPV
human mGlu4, sequence (Q14833 33-912): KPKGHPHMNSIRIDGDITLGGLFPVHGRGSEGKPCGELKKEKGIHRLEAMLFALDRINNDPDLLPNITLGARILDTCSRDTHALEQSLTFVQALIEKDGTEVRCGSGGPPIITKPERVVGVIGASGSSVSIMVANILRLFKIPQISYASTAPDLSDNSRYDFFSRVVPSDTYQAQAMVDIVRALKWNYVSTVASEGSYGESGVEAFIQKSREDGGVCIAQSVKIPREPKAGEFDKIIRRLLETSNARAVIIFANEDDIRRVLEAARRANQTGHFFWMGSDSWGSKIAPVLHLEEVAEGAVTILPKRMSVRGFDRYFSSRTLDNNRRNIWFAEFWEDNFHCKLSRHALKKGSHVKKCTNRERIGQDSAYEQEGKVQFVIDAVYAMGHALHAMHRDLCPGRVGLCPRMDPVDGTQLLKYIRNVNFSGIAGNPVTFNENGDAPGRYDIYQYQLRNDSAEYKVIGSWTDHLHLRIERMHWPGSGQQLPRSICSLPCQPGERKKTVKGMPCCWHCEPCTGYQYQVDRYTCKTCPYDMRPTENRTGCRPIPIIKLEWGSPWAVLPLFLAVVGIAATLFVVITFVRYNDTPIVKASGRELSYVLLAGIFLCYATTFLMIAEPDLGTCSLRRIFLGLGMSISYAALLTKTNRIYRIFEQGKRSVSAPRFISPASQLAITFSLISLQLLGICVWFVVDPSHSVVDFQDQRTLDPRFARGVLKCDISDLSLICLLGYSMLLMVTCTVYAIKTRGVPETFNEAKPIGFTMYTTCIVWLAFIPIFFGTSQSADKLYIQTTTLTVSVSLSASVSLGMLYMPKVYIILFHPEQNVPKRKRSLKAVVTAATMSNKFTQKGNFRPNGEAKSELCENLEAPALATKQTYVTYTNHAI
CYP2D6, sequence (P10635 whole entry): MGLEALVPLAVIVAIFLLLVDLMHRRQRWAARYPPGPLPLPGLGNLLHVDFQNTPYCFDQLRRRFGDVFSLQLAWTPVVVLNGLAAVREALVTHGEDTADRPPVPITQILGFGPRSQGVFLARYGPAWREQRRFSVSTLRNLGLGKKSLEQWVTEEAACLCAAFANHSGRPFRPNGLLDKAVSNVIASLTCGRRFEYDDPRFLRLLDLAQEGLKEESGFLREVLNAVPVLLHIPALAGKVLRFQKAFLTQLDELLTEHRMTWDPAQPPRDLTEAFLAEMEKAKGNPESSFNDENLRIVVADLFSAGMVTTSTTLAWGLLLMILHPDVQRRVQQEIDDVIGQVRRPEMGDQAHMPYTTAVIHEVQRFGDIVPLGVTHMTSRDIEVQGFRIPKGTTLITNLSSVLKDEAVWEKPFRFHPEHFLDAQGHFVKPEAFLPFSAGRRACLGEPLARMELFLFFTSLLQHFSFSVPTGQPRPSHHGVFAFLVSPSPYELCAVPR
CYP3A4, sequence (P08684 whole entry): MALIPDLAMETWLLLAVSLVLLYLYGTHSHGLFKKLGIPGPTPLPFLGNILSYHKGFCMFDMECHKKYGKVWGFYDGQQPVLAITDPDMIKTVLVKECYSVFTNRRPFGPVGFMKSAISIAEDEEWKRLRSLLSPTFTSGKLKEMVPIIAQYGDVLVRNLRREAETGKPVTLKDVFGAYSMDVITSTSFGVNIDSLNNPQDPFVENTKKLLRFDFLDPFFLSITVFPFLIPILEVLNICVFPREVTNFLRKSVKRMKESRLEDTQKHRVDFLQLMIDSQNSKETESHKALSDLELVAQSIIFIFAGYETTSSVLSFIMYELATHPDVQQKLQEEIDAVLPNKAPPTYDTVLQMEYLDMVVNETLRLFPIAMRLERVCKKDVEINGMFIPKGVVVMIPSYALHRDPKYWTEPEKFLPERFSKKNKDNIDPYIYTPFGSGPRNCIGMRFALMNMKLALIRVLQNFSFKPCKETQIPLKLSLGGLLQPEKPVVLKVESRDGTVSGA
rat mGlu4, sequence (P31423 33-912): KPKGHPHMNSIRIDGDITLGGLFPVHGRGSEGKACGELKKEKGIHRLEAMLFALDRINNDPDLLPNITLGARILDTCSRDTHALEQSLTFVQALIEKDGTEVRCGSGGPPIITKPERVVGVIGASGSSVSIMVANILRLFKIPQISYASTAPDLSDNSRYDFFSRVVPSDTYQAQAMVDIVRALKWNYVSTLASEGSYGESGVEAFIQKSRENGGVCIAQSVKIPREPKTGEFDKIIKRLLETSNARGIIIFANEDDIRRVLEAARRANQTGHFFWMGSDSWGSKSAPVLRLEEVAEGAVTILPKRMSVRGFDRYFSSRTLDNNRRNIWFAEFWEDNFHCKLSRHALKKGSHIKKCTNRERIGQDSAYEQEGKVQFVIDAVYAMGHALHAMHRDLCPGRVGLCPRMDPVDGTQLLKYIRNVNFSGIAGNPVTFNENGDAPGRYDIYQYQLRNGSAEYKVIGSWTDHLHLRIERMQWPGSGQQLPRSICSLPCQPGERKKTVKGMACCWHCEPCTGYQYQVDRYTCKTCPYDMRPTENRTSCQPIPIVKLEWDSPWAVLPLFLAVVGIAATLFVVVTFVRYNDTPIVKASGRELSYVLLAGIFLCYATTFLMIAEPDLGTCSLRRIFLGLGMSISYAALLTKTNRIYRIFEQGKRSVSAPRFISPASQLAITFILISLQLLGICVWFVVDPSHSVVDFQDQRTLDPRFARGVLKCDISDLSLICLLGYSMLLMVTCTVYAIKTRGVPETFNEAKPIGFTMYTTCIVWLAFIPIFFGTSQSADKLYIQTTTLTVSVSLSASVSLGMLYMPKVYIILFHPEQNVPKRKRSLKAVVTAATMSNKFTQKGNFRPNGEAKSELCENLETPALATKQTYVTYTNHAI

A word on the IC50: it is the concentration that inhibits the measured activity by half. High values mean weaker potency, low ones greater potency. By CLint scaled is commonly meant a measure of how fast metabolising enzymes remove a compound, apart from limits set by blood flow. The low end stands for greater metabolic stability, the high end for faster metabolism. In the case of `Cc1ccccc1C(=O)Nc1ccc(NC(=O)c2ccccn2)cc1Cl` [Compound 12a, N-(3-chloro-4-(2-methylbenzamido)phenyl)picolinamide], the half-maximal inhibitory concentration (IC50) against CYP2D6 was 12 µM; at CYP2C9 it was 14.1 µM; against CYP1A2, more than 30 µM; on CYP1A2 (human), more than 10 µM; against CYP3A4, more than 30 µM. Also, the “Rat Clint” value in the series “microsomal stability” was “acceptable”. In addition, the intrinsic clearance (CLint scaled) at 1 µM in the series “microsomal stability” was determined as 46.2 mL/min/kg.
`O=C(Nc1ccc(NC(=O)c2ccc(F)cc2Cl)c(Cl)c1)c1ccccn1` [Compound 12d] registered a CLint scaled at 1 µM in “microsomal stability” of 54 mL/min/kg.
For `COc1cc(NC(=O)c2nccs2)ccc1NC(=O)c1ccccc1Cl` [Compound 9e], on rat mGlu4, the “GluMax (%Cmpd 1), rat mGlu4” value is reported as 133.9 %Cmpd 1. For the same compound, in “microsomal stability”, the “Rat Clint” value is “poor metabolic stability” and the CLint scaled at 1 µM is 185 mL/min/kg.
As to `COc1cc(NC(=O)c2ccccn2)ccc1Cl` [Compound 3], in series [1], the CNS penetration entry was “CNS penetrant”.
The term EC50 denotes the concentration giving half of the maximal effect. The low end stands for higher potency in that assay, the high end for lower potency in that assay. `COc1cc(NC(=O)c2cnccn2)ccc1NC(=O)c1ccccc1Cl` [Compound 9h]: the EC50 at human mGlu4 is 0.0995 µM.
With `O=C(Nc1ccc(NC(=O)c2ccccc2Cl)c(F)c1)c1ccccn1` [Compound 10d], in “microsomal stability”, the intrinsic metabolic clearance (CLint scaled) at 1 µM worked out at 31.2 mL/min/kg.
`O=C(Nc1ccccc1)[C@]12C[C@H]1/C(=N\O)c1ccccc1O2` (stereo in doubt) [Compound 1, N-phenyl-7-(hydroxyimino)cyclopropa[b]chromen-1a-carboxamide]: the “activity in acute rodent models of Parkinson's disease” value in series [2] is on record as “active”. The “activity at mGlu1” value in the series with mGlu1 was “partial antagonist activity”.
Take `O=C(Nc1ccc(NC(=O)c2ccccc2Cl)c(C(F)(F)F)c1)c1ccccn1` [Compound 10b]: at human mGlu4, it took 0.556 µM to reach a half-maximal effect (EC50).
Take `O=C(Nc1ccc(NC(=O)c2ccccc2Cl)c(Cl)c1)c1ccccn1` [Compound 10a, N-(3-chloro-4-(2-chlorobenzamido)phenyl)picolinamide]: the IC50 against CYP2D6 was 13.1 µM; on CYP2C9, 11.8 µM; at CYP1A2, more than 30 µM; against CYP3A4 it was more than 30 µM. For the same compound, the “Rat Clint” value in the series “microsomal stability” is given as “acceptable”. This compound displayed a CLint scaled at 1 µM in “microsomal stability” of 44.9 mL/min/kg.
In the case of `O=C(Nc1ccc(NC(=O)c2ccccc2Cl)cc1)c1ccccn1` [Compound 10c], on human mGlu4, the EC50 amounted to 3.75 µM. This lies in the single-digit micromolar range.
With `COc1ccccc1C(=O)n1ccc2cc(NC(=O)c3ccccn3)ccc21` [Compound 15], in the series “microsomal stability”, the “Rat Clint” value was “poor metabolic stability” and the CLint scaled at 1 µM was 605 mL/min/kg.
For the compound `COc1cc(NC(=O)c2ccccn2)ccc1NC(=O)c1ccccc1Cl` [Compound 9g, N-(4-(2-chlorobenzamido)-3-methoxyphenyl)picolinamide], the “GluMax (%Cmpd 1), rat mGlu4” value at rat mGlu4 turned out to be 147.0 %Cmpd 1. Moreover, the half-inhibitory concentration (IC50) is 12.8 µM on CYP2D6, 14.3 µM against CYP2C9, more than 30 µM against CYP1A2 and more than 30 µM against CYP3A4. In “microsomal stability”, the CLint scaled at 1 µM is 42.6 mL/min/kg.
